{"source": "patent EP0169785A1", "about": "“Use of 1,8,9-triacetoxy-anthracene as the active ingredient in the preparation of an antitumoral pharmaceutical compound” (CENTRE INTERNATIONAL DE RECHERCHES DERMATOLOGIQUES C.I.R.D. …, priority 1984, dated 1986)", "key": {"[1]": {"system": "cellules leucémiques lymphocytiques P 388", "experiment": "Anti-tumour activity against intraperitoneally implanted P 388 lymphocytic leukaemia in mice (median survival time)", "type": "in vivo, souris", "settings": "for Temps médian de survie (en jours) Animaux testés T / T/C x 100: intraperitoneal; for Temps médian de survie (en jours) Animaux testés T: daily for 5 days after tumour implantation, controls C 9,9 days; for T/C x 100: active when ratio above 120", "description": "EXEMPLE 4 - Etude de l'activité anti-tumorale vis-à-vis des cellules leucémiques lymphocytiques P 388.\nLe principe du test est le suivant : On implante chez la souris, au jour zéro, une tumeur, par injection intrapéritonéale de 10^6 cellules tumorales dans 0,1 ml de fluide ascitique dilué. Le traitement consiste à administrer quotidiennement le produit étudié, par voie intrapéritonéale pendant les 5 jours suivant l'implantation de la tumeur.\nOn considère que le produit est actif selon ce test, lorsque le rapport [formula] est supérieur à 120."}, "[2]": {"system": "cellules de mélanocarcinome B 16", "experiment": "Anti-tumour activity against intraperitoneally implanted B 16 melanocarcinoma in mice (median survival time)", "type": "in vivo, souris", "settings": "for Temps médian de survie (en jours) Animaux testés T / T/C X 100: intraperitoneal; for Temps médian de survie (en jours) Animaux testés T: daily for 9 days after tumour implantation, controls C 15,4 days; for T/C X 100: active when ratio above 125", "description": "EXEMPLE 5 - Etude de l'activité anti-tumorale vis-à-vis des cellules de mélanocarcinome B 16.\nLe principe du test est le suivant : On a implanté, chez la souris, par injection intrapériotonéale au jour 0, 0,5 ml d'un homogénéisat dilué (1/10) des cellules tumorales.\nLe traitement consiste à administrer le produit étudié, quotidiennement, par voie intrapéritonéale, pendant les 9 jours suivant l'implantation de la tumeur.\nOu considère qu'un produit est actif, selon ce test, lorsque le rapport [formula] est supérieur à 125."}, "[3]": {"experiment": "Solubility (qualitative description)", "type": "physicochemical", "settings": "solvents named"}}}
{"smiles": "CC(=O)Oc1cccc2cc3cccc(OC(C)=O)c3c(OC(C)=O)c12", "note": "[composé de formule I, triacétoxy-1,8,9 anthracène]", "values": [{"measurement": "Temps médian de survie (en jours) Animaux testés T", "setting": "[1]; 0,79 mg/kg", "value": "12,3 jours"}, {"measurement": "T/C x 100", "setting": "[1]; 0,79 mg/kg, daily for 5 days", "value": 124}, {"measurement": "Temps médian de survie (en jours) Animaux testés T", "setting": "[1]; 1,56 mg/kg", "value": "13,3 jours"}, {"measurement": "T/C x 100", "setting": "[1]; 1,56 mg/kg, daily for 5 days", "value": 134}, {"measurement": "Temps médian de survie (en jours) Animaux testés T", "setting": "[1]; 3,12 mg/kg", "value": 13, "unit": "jours"}, {"measurement": "T/C x 100", "setting": "[1]; 3,12 mg/kg, daily for 5 days", "value": 131}, {"measurement": "minimal effective dose", "setting": "[1]; Mus musculus, P388, ip, 120 h, P 388, intraperitoneal, daily for 5 days, dose at which the compound is active (T/C x 100 above 120), read-out: actif à la dose de", "value": "~0.8", "unit": "mg/kg"}, {"measurement": "dose optimale", "setting": "[1]; P 388, intraperitoneal, daily for 5 days", "value": "~1,56 mg/kg"}, {"measurement": "Temps médian de survie (en jours) Animaux testés T", "setting": "[2]; 0,75 mg/kg", "value": "19,7 jours"}, {"measurement": "T/C X 100", "setting": "[2]; 0,75 mg/kg, daily for 9 days", "value": 127}, {"measurement": "Temps médian de survie (en jours) Animaux testés T", "setting": "[2]; 3 mg/kg", "value": 20, "unit": "jours"}, {"measurement": "T/C X 100", "setting": "[2]; 3 mg/kg, daily for 9 days", "value": 129}, {"measurement": "Temps médian de survie (en jours) Animaux testés T", "setting": "[2]; 1,5 mg/kg", "value": 23, "unit": "jours"}, {"measurement": "T/C X 100", "setting": "[2]; 1,5 mg/kg, daily for 9 days", "value": 149}, {"measurement": "dose optimale", "setting": "[2]; B 16, intraperitoneal, daily for 9 days", "value": "~1,50 mg/kg"}, {"measurement": "solubilité", "setting": "[3]", "value": "soluble notamment dans les alcools et l'acétone"}]}
